Where “and” joins values, the source holds several entries; their conditions need not be identical. Equal values may be shown once. Inconclusive results and toxic doses are left out.
System: L1210 leukemia ip in BDF1 mice, survival T/C
Assay: NCI In Vivo Anticancer Drug Screen. Data for tumor model L1210 Leukemia (intraperitoneal) in B6D2F1 (BDF1) mice
Details: endpoint: mean survival time, higher = longer survival
In short: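 Mice bearing the transplanted tumor received compound or vehicle. Survival of the treated group was divided by that of the vehicle-treated control group to give the ratio.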

[1] = dose: 100.0 mg/kg/injection, schedule: Q01DX009 (ip), vehicle: saline with Tween-80
[2] = dose: 200.0 mg/kg/injection, schedule: Q01DX009 (ip), vehicle: saline with Tween-80
[3] = dose: 100.0 mg/kg/injection, schedule: Q04DX003 (ip), vehicle: Klucel (hydroxypropylcellulose) (HPC)
[4] = dose: 200.0 mg/kg/injection, schedule: Q04DX003 (ip), vehicle: Klucel (hydroxypropylcellulose) (HPC)
[5] = dose: 400.0 mg/kg/injection, schedule: Q04DX003 (ip), vehicle: Klucel (hydroxypropylcellulose) (HPC)
[6] = dose: 100.0 mg/kg/injection, schedule: Q04DX003 (ip), vehicle: saline
[7] = dose: 200.0 mg/kg/injection, schedule: Q04DX003 (ip), vehicle: saline
[8] = dose: 400.0 mg/kg/injection, schedule: Q04DX003 (ip), vehicle: saline
[9] = dose: 50.0 mg/kg/injection, schedule: Q01DX001 (ip), vehicle: saline
[10] = dose: 100.0 mg/kg/injection, schedule: Q01DX001 (ip), vehicle: saline
[11] = dose: 200.0 mg/kg/injection, schedule: Q01DX001 (ip), vehicle: saline
[12] = dose: 400.0 mg/kg/injection, schedule: Q01DX001 (ip), vehicle: saline

O=C(O)C(F)(F)C(F)(F)C(F)(F)F.O=C(O)C(F)(F)C(F)(F)C(F)(F)F.O=C(O)C(F)(F)C(F)(F)C(F)(F)F.O=C(O)C(F)(F)C(F)(F)C(F)(F)F.[Rh].[Rh]
T/C (dose: 25.0 mg/kg/injection, schedule: Q04DX002 (ip), vehicle: saline with Tween-80): 94 % of control
T/C (dose: 50.0 mg/kg/injection, schedule: Q04DX002 (ip), vehicle: saline with Tween-80): 102 % of control
T/C (dose: 100.0 mg/kg/injection, schedule: Q04DX002 (ip), vehicle: saline with Tween-80): 105 % of control

CCCC[S][Hg][I]
T/C (dose: 3.12 mg/kg/injection, schedule: Q01DX009 (ip), vehicle: Klucel (hydroxypropylcellulose) (HPC)): 98 % of control
T/C (dose: 6.25 mg/kg/injection, schedule: Q01DX009 (ip), vehicle: Klucel (hydroxypropylcellulose) (HPC)): 98 % of control
T/C (dose: 12.5 mg/kg/injection, schedule: Q01DX009 (ip), vehicle: Klucel (hydroxypropylcellulose) (HPC)): 110 % of control

CC(O)(c1ccccc1)C1C(c2ccccc2)N1Cc1ccccc1 (configuration not stated)
T/C (dose: 100.0 mg/kg/injection, schedule: Q04DX003 (ip), vehicle: saline sonified): 96 % of control
T/C (dose: 200.0 mg/kg/injection, schedule: Q04DX003 (ip), vehicle: saline sonified): 94 % of control
T/C (dose: 400.0 mg/kg/injection, schedule: Q04DX003 (ip), vehicle: saline sonified): 91 % of control

CCOC(=O)Nc1cccc(O)c1
T/C [1]: 91 % of control
T/C [2]: 103 % of control
T/C (dose: 400.0 mg/kg/injection, schedule: Q01DX009 (ip), vehicle: saline with Tween-80): 92 % of control

N#C/C(=C\c1ccc(-c2ccccc2)cc1)c1ccc(Cl)cc1
T/C (dose: 3.13 mg/kg/injection, schedule: Q01DX009 (ip), vehicle: saline with Tween-80): 98 % of control
T/C (dose: 6.25 mg/kg/injection, schedule: Q01DX009 (ip), vehicle: saline with Tween-80): 92 % of control
T/C (dose: 12.5 mg/kg/injection, schedule: Q01DX009 (ip), vehicle: saline with Tween-80): 93 % of control and 87 % of control
T/C (dose: 12.5 mg/kg/injection, schedule: Q04DX003 (ip), vehicle: saline with Tween-80): 95 % of control
T/C (dose: 25.0 mg/kg/injection, schedule: Q04DX003 (ip), vehicle: saline with Tween-80): 95 % of control
T/C (dose: 50.0 mg/kg/injection, schedule: Q04DX003 (ip), vehicle: saline with Tween-80): 93 % of control

CCOC(=O)c1[nH]c2ccsc2c1CN(C)C
T/C [3]: 102 % of control
T/C [4]: 91 % of control
T/C [5]: 97 % of control

CCC(OBr)C1COC(Nc2ccccc2)O1 (configuration not stated)
T/C (dose: 100.0 mg/kg/injection, schedule: Q01DX009 (ip), vehicle: Klucel (hydroxypropylcellulose) (HPC)): 96 % of control
T/C [6]: 95 % of control
T/C (dose: 200.0 mg/kg/injection, schedule: Q01DX009 (ip), vehicle: Klucel (hydroxypropylcellulose) (HPC)): 96 % of control
T/C [7]: 105 % of control
T/C (dose: 400.0 mg/kg/injection, schedule: Q01DX009 (ip), vehicle: Klucel (hydroxypropylcellulose) (HPC)): 103 % of control
T/C [8]: 101 % of control

CCC(=O)OCC1OC(n2cc(F)c(=O)[nH]c2=O)CC1OC(=O)CC (configuration not stated)
T/C [9]: 101 % of control
T/C (dose: 89.0 mg/kg/injection, schedule: Q01DX015 (ip), vehicle: saline): 117 % of control
T/C [10]: 101 % of control
T/C [6]: 104 % of control
T/C [11]: 101 % of control
T/C [7]: 114 % of control
T/C (dose: 264.0 mg/kg/injection, schedule: Q04DX003 (ip), vehicle: saline): 111 % of control and 112 % of control
T/C (dose: 300.0 mg/kg/injection, schedule: Q01DX015 (ip), vehicle: saline): 115 % of control
T/C [12]: 113 % of control
T/C [8]: 108 % of control

CC(=O)Nc1ccc(NC(C)=O)cc1
T/C (dose: 100.0 mg/kg/injection, schedule: Q04DX003 (ip), vehicle: saline with Tween-80): 95 % of control
T/C (dose: 200.0 mg/kg/injection, schedule: Q04DX003 (ip), vehicle: saline with Tween-80): 91 % of control
T/C (dose: 400.0 mg/kg/injection, schedule: Q04DX003 (ip), vehicle: saline with Tween-80): 95 % of control

CC(C)N(N=O)C(C)C
T/C [9]: 104 % of control
T/C [10]: 104 % of control
T/C [11]: 102 % of control
T/C [12]: 98 % of control

CCCC/C=C/Br
T/C [6]: 100 % of control
T/C (dose: 200.0 mg/kg/injection, schedule: Q01DX009 (ip), vehicle: acetone): 101 % of control
T/C [7]: 108 % of control
T/C [8]: 105 % of control

ClCc1ccc(CCl)cc1
T/C (dose: 56.25 mg/kg/injection, schedule: Q01DX009 (ip), vehicle: Klucel (hydroxypropylcellulose) (HPC)): 101 % of control
T/C (dose: 112.5 mg/kg/injection, schedule: Q01DX009 (ip), vehicle: Klucel (hydroxypropylcellulose) (HPC)): 98 % of control
T/C (dose: 150.0 mg/kg/injection, schedule: Q04DX003 (ip), vehicle: Klucel (hydroxypropylcellulose) (HPC)): 105 % of control
T/C (dose: 225.0 mg/kg/injection, schedule: Q01DX009 (ip), vehicle: Klucel (hydroxypropylcellulose) (HPC)): 87 % of control
T/C (dose: 225.0 mg/kg/injection, schedule: Q04DX003 (ip), vehicle: Klucel (hydroxypropylcellulose) (HPC)): 97 % of control

COC1(OC)CC2C(=O)CCCC21OC(C)=O (configuration not stated)
T/C (dose: 75.0 mg/kg/injection, schedule: Q04DX002 (ip), vehicle: saline): 93 % of control
T/C (dose: 150.0 mg/kg/injection, schedule: Q04DX002 (ip), vehicle: saline): 103 % of control
T/C (dose: 300.0 mg/kg/injection, schedule: Q04DX002 (ip), vehicle: saline): 107 % of control

C#CCn1cnc2c(=S)nc[nH]c21
T/C (dose: 10.0 mg/kg/injection, schedule: Q01DX009 (ip), vehicle: saline): 104 % of control
T/C (dose: 15.0 mg/kg/injection, schedule: Q04DX003 (ip), vehicle: saline): 103 % of control
T/C (dose: 25.0 mg/kg/injection, schedule: Q01DX009 (ip), vehicle: saline): 114 % of control
T/C (dose: 30.0 mg/kg/injection, schedule: Q04DX003 (ip), vehicle: saline): 111 % of control
T/C (dose: 52.0 mg/kg/injection, schedule: Q04DX003 (ip), vehicle: Klucel (hydroxypropylcellulose) (HPC)): 110 % of control
T/C (dose: 60.0 mg/kg/injection, schedule: Q04DX003 (ip), vehicle: saline): 111 % of control
T/C (dose: 78.0 mg/kg/injection, schedule: Q04DX003 (ip), vehicle: Klucel (hydroxypropylcellulose) (HPC)): 115 % of control
T/C (dose: 90.0 mg/kg/injection, schedule: Q01DX009 (ip), vehicle: saline): 119 % of control
T/C (dose: 100.0 mg/kg/injection, schedule: Q01DX001 (ip), vehicle: other): 104 % of control
T/C [3]: 113 % of control
T/C (dose: 118.0 mg/kg/injection, schedule: Q04DX003 (ip), vehicle: Klucel (hydroxypropylcellulose) (HPC)): 115 % of control
T/C (dose: 175.0 mg/kg/injection, schedule: Q01DX009 (ip), vehicle: saline): 93 % of control
T/C (dose: 177.0 mg/kg/injection, schedule: Q01DX001 (ip), vehicle: Klucel (hydroxypropylcellulose) (HPC)): 108 % of control
T/C (dose: 177.0 mg/kg/injection, schedule: Q04DX003 (ip), vehicle: Klucel (hydroxypropylcellulose) (HPC)): 155 % of control
T/C (dose: 177.0 mg/kg/injection, schedule: Q04DX003 (ip), vehicle: saline): 150 % of control
T/C (dose: 200.0 mg/kg/injection, schedule: Q01DX001 (ip), vehicle: other): 121 % of control
T/C [4]: 124 % of control
T/C (dose: 266.0 mg/kg/injection, schedule: Q04DX003 (ip), vehicle: Klucel (hydroxypropylcellulose) (HPC)): 162 % of control
T/C (dose: 266.0 mg/kg/injection, schedule: Q04DX003 (ip), vehicle: saline): 116 % of control
T/C [5]: 157 % of control
T/C [8]: 114 % of control
T/C (dose: 600.0 mg/kg/injection, schedule: Q01DX001 (ip), vehicle: Klucel (hydroxypropylcellulose) (HPC)): 152 % of control
T/C (dose: 600.0 mg/kg/injection, schedule: Q01DX001 (ip), vehicle: other): 156 % of control
T/C (dose: 600.0 mg/kg/injection, schedule: Q04DX003 (ip), vehicle: saline): 112 % of control

CSC(=N)c1cccc(OCCCc2ccccc2)c1
T/C (dose: 25.0 mg/kg/injection, schedule: Q01DX009 (ip), vehicle: saline with Tween-80): 92 % of control
T/C (dose: 50.0 mg/kg/injection, schedule: Q01DX009 (ip), vehicle: saline with Tween-80): 92 % of control
T/C [1]: 101 % of control
T/C [2]: 93 % of control

N/C=C(/NC(=O)c1ccccc1C(N)=O)C(=O)O
T/C (dose: 75.0 mg/kg/injection, schedule: Q01DX001 (ip), vehicle: saline): 100 % of control
T/C (dose: 150.0 mg/kg/injection, schedule: Q01DX001 (ip), vehicle: saline): 100 % of control
T/C (dose: 300.0 mg/kg/injection, schedule: Q01DX001 (ip), vehicle: saline): 91 % of control
